Test results from ChEMBL document CHEMBL1926672, “New 5-benzylidenethiazolidin-4-one inhibitors of bacterial MurD ligase: design, synthesis, crystal structures, and biological evaluation” (Eur J Med Chem, 2011).
In brackets after ≈: the same amount, converted by molar mass.

Columns and labels:
[1] = system: Escherichia coli; assay: Inhibition of Escherichia coli MurD ligase assessed as residual activity at 250 uM after 15 mins using UDP-MurNAc-L-Ala substrate by malachite green colorimetric method
[2] = system: Escherichia coli; assay: Inhibition of Escherichia coli MurD ligase assessed as residual activity at 500 uM after 15 mins using UDP-MurNAc-L-Ala substrate by malachite green colorimetric method
[3] = Inhibition of Escherichia coli MurD ligase assessed as addition of D-[14C]glu to UDP-N-acetyl-muramoyl-L-alanine after 30 mins by radioactivity assay
[4] = Inhibition of Escherichia coli MurD ligase assessed as residual activity after 15 mins using UDP-MurNAc-L-Ala substrate by malachite green colorimetric method
[5] = system: Enterococcus faecalis; assay: Antibacterial activity against Enterococcus faecalis ATCC 29212 after 18 to 24 hrs by macrodilution technique; assay type: functional
[6] = system: Staphylococcus aureus; assay: Antibacterial activity against Staphylococcus aureus ATCC 29213 after 18 to 24 hrs by macrodilution technique; assay type: functional
[7] = system: Escherichia coli; assay: Antibacterial activity against Escherichia coli ATCC 25922 after 18 to 24 hrs by macrodilution technique; assay type: functional
[8] = system: Pseudomonas aeruginosa; assay: Antibacterial activity against Pseudomonas aeruginosa […] after 18 to 24 hrs by macrodilution technique; assay type: functional

O=C(O)CC[C@@H](NS(=O)(=O)c1ccc(COc2cccc(/C=C3\SC(=O)NC3=O)c2)cc1)C(=O)O
Activity [1]: 71%

O=C(O)CC[C@@H](NC(=O)c1ccc(COc2ccc(/C=C3\SC(=O)NC3=O)cc2OCC(=O)O)cc1)C(=O)O
Activity [2]: 86%

O=C(O)CC[C@@H](NC(=O)c1cccc(COc2cccc(/C=C3\SC(=S)NC3=O)c2)c1)C(=O)O
IC50 [3]: 47 µM

O=C(O)CC[C@@H](NC(=O)c1cccc(COc2ccc(/C=C3\SC(=O)NC3=O)cc2)c1)C(=O)O
IC50 [4]: 128 µM

O=C(O)CC[C@@H](NS(=O)(=O)c1ccc(COc2ccc(/C=C3\SC(=S)NC3=O)cc2OCC(=O)O)cc1)C(=O)O
IC50 [4]: 472 µM

O=C(O)CC[C@@H](NC(=O)c1ccc(COc2cccc(/C=C3\SC(=S)NC3=O)c2)cc1)C(=O)O
MBC [5]: > 128 µg/mL | MIC [5]: > 128 µg/mL | MBC [6]: > 128 µg/mL | MIC [6]: > 128 µg/mL | IC50 [3]: 28 µM | MBC [7]: > 128 µg/mL | MIC [7]: > 128 µg/mL | MBC [8]: > 128 µg/mL | MIC [8]: > 128 µg/mL

O=C(O)CC[C@@H](NC(=O)c1ccc(COc2ccc(/C=C3\SC(=S)NC3=O)cc2OCC(=O)O)cc1)C(=O)O
MBC [5]: > 128 µg/mL | MIC [5]: 128 µg/mL (≈ 223 µM) | MBC [6]: > 128 µg/mL | MIC [6]: 128 µg/mL (≈ 223 µM) | IC50 [3]: 34 µM | MBC [7]: > 128 µg/mL | MIC [7]: > 128 µg/mL | MBC [8]: > 128 µg/mL | MIC [8]: > 128 µg/mL

O=C(O)CC[C@@H](NS(=O)(=O)c1ccc(COc2ccc(/C=C3\SC(=S)NC3=O)cc2)cc1)C(=O)O
IC50 [3]: 120 µM

O=C(O)CC[C@@H](NC(=O)c1cccc(CNc2ccc(/C=C3\SC(=S)NC3=O)cc2)c1)C(=O)O
IC50 [3]: 45 µM

O=C(O)CC[C@@H](NC(=O)c1ccc(COc2ccc(Cn3ccc(=O)[nH]c3=O)cc2)cc1)C(=O)O
Activity [2]: 85%

O=C(O)CC[C@@H](NC(=O)c1cccc(COc2ccc(/C=C3\SC(=S)NC3=O)cc2)c1)C(=O)O
IC50 [4]: 76 µM

O=C(O)CC[C@@H](NS(=O)(=O)c1ccc(COc2ccc(/C=C3\SC(=O)NC3=O)cc2OCC(=O)O)cc1)C(=O)O
IC50 [4]: 814 µM

O=C(O)CC[C@@H](NS(=O)(=O)c1ccc(COc2cccc(/C=C3\SC(=S)NC3=O)c2)cc1)C(=O)O
MBC [5]: > 128 µg/mL | MIC [5]: > 128 µg/mL | MBC [6]: > 128 µg/mL | MIC [6]: > 128 µg/mL | IC50 [3]: 45 µM | MBC [7]: > 128 µg/mL | MIC [7]: > 128 µg/mL | MBC [8]: > 128 µg/mL | MIC [8]: > 128 µg/mL

O=C(O)CC[C@@H](NC(=O)c1cccc(COc2ccc(Cn3ccc(=O)[nH]c3=O)cc2)c1)C(=O)O
Activity [2]: 86%

O=C(O)CC[C@@H](NC(=O)c1ccc(COc2cccc(/C=C3\SC(=O)NC3=O)c2)cc1)C(=O)O
Activity [2]: 79%

O=C(O)CC[C@@H](NC(=O)c1cccc(COc2cccc(/C=C3\SC(=O)NC3=O)c2)c1)C(=O)O
Activity [2]: 65%
